Experiments:
[1] = test system: retinoic acid oxidation (cytochrome P450 systems); experiment: Assay for NADPH Dependent Retinoic Acid Oxidation, liver microsomes; assay type: biochemical, rat; settings: for % Inhibition Retinoic Acid (100 μM): 100 μM compound; for % Inhibition Retinoic Acid (10 μM): 10 μM compound
[2] = Retinol stability in the presence of boosters (OD 360 nm); assay type: physicochemical; settings: booster approximately 0.1%, 60 hours at room temperature in the dark, approx. 50% aqueous ethanol
Procedure: Retinol (50% in tween 80) was dissolved in approximately 50% aqueous ethanol to provide a solution giving an OD at 360 nm of approximately 0.6 when measured in a 200 μl volume in a 96 well plate using a standard 96 well spectrophotometer.
Booster molecules were added at approximately 0.1% concentration and the OD 360 measured as above immediately and after 60 hours at room temperature in the dark. A correction was applied to the OD after 60 hours (divide by 0.85) to account for increased concentration of the retinol due to evaporation of solvent from the plate.

TGase I = experiment: Transglutaminase (TGase I ELISA) assay in cultured keratinocytes; assay type: cell-based; settings: booster in combination with a constant retinol concentration of 10^−7M; read-out: Overall TG (IC 50)
Procedure: Transglutaminase Assay and Keratinocyte Differentiation
An ELISA based TGase I assay, using a TGase I antibody, was used to assess the state of differentiation of the cultured keratinocytes in the examples that follow.
Keratinocytes (cultured as described above) were plated in 96 well plates at a density of 4,000-5,000 cells per well in 200 μl media. After incubation for two to three days, or until cells are ˜50% confluent, the media was changed to media containing test compounds (five replicates per test). The cells were cultured for a further 96 hours after which time the media was aspirated and the plates stored at −70° C. Plates were removed from the freezer, and the cells were washed twice with 200 μl of 1×PBS. The cells were incubated for one hour at room temperature (R/T) with TBS/5% BSA (wash buffer, bovine serum albumin). Next the TGase primary antibody was added: 50 μl of monoclonal anti-Tgase I Ab B.C. diluted 1:2000 in wash buffer. The primary antibody was incubated for 2 hours at 37° C. and then rinsed 6× with wash buffer. Cells were then incubated with 50 μl of secondary antibody (Fab fragment, peroxidase conjugated anti-mouse IgG obtaining from Amersham) diluted 1:4,000 in wash buffer for two hours at 37° C., then rinsed three times with wash buffer. Following the rinse with washing buffer, the cells were rinsed 3× with PBS. For colourimetric development, the cells were incubated with 100 μl substrate solution (4 mg o-phenylenediamine and 3.3 μl 30% H2O2 in 10 ml 0.1M citrate buffer pH 5.0) for exactly five minutes, R/T, in darkness (under aluminum foil). The reaction was stopped by the addition of 50 μl 4N H2SO4. […] Out of the five replicates, four were treated with both antibodies, the fifth one was use as a Tgase background control. TGase levels were determined and expressed as percentage control.
(i) % (booster+retinol inhibition/control inhibition)−% (ROH inhibition/control inhibition), which measures the added effect of booster+retinol induced TGase inhibition over retinol alone, or

ARAT = experiment: Assay for ARAT activity, RPE microsomes; assay type: biochemical, bovine; settings: for % Inhibition ARAT (10 μm): 10 μm compound; for % Inhibition ARAT (100 μm): 100 μm compound
Procedure: (§1) 50 frozen hemisected bovine eyecups, with the retina and aqueous humor removed were obtained from W. L. Lawson Co., Lincoln, Nebr., USA. The eyes were thawed overnight and the colored iridescent membrane was removed by peeling with forceps. […] The cell suspension was added to the iridescent membranes and the suspension was stirred for several minutes in a beaker with a Teflon stir bar. […] The cell homogenate was centrifuged for 30 min. at 20,000 g (Sorvaal model RC-5B centrifuge with an SS34 rotor in 2.5×10 cm tubes at 14,000 RPM). The resulting supernatant was subjected to further centrifugation for 60 min. at 150,000 g (Beckman model L80 Ultracentrifuge with an SW50.1 rotor in 13×51 mm tubes at 40,000 RPM). The resulting pellets were dispersed into ˜5 mL 0.1M PO4/5 mM DTT, pH 7 buffer using a Heat Systems Ultrasonics, Inc. model W185D Sonifier Cell Disruptor, and the resulting microsomal dispersion was aliquoted into small tubes and stored at −70° C. The protein concentrations of the microsomes were determined using the BioRad Dye binding assay, using BSA as a standard.
(§2) 2.3 Assay for ARAT and LRAT activity (To identify B1)
(§3) The following buffer was prepared and stored at 4° C.: 0.1M PO4/5 mM dithiothreitol, pH 7.0 (PO4/DTT). On the day of the assay, add 2 mg BSA per mL of buffer to give a PO4/DTT/BSA working buffer. 1 mM retinol substrate was prepared in acetonitrile and stored in amber bottles under nitrogen gas at −20° C. Solutions of 4 mM Palmitoyl-CoA in working buffer (stored in aliquots) and 4 mM dilauroyl phosphatidyl choline in ethanol were prepared and stored at −20° C. Inhibitors were prepared as 10 mM stock solutions in H2O, ethanol, acetonitrile or DMSO. The quench solution was prepared using pure ethanol containing 50 μg/mL butylated hydroxytoluene (BHT), and a hexane solution containing 50 μg/mL BHT was used for the extractions.
(§4) Incubate for 5 min. at 37° C. to equilibrate the reaction temperature and then add 5 μL 1 mM retinol. Cap the vials, vortex for 5 seconds and incubate for 30-90 minutes at 37° C. Quench the reaction by adding 0.5 mL ethanol/BHT. Extract the retinoids by adding 3 mL hexane/BHT, vortex the tubes for several seconds several times and centrifuge the tubes at low speed for 5 min. to quickly separate the layers. Remove the upper hexane layer into a clean vial, and re-extract the aqueous layer with another 3 mL hexane/BHT, as described above. Combine the hexane layers and evaporate the hexane by drying at 37° C. under a stream of nitrogen gas on a heated aluminum block. Store the dried residue at −20° C. until HPLC analysis. Quantitate the amount of retinyl palmitate and retinyl laurate for ARAT and LRAT activity, respectively, by integration of the HPLC signal as described below.
(§5) Note that the incubation solution contains 40 μM acyl donor, 100 μM or less inhibitor, 10 μM retinol, approximately 30 μg/mL microsomal protein, and nearly 0.1M PO4, pH 7/5 mM DTT/2 mg/mL BSA. All steps subsequent to the addition of retinol were done in the dark or under amber lights.
(§6) Samples for retinoid quantitation by HPLC were prepared by dissolving the residue in each vial with 100 μL of methanol. […] Aliquots of 60 μL were injected immediately and analyzed for retinoid content.
(§7) Two HPLC protocols were used for retinoid analysis. […] This system consisted of a 20 min. linear gradient from 68:32 (v/v) methanol/ water containing 10 mM ammonium acetate to 4:1 (v/v) methanol:dichloromethane followed by a 5 min. hold at a flow rate of 1 mL/min. The column eluate was monitored from 300 nm to 400 nm.
(§8) These protocols were selected based on their ability to clearly resolve pertinent retinoid acids, alcohols, aldehydes, and/or esters for each assay and relative quickness of separation.

LRAT = target: T1, LRAT (Bos taurus, UniProt Q9BGL2); experiment: Assay for LRAT activity, RPE microsomes; assay type: biochemical, bovine; settings: for % Inhibition LRAT (10 μm): 10 μm compound; for % Inhibition LRAT (100 μm): 100 μm compound
T1 construct: followed by approximately 15 μg of RPE microsomal protein; tissue W. L. Lawson Co., Lincoln, Nebr; host or cells: bovine retinal pigment epithelium microsomes
T1 sequence (Q9BGL2 1-230): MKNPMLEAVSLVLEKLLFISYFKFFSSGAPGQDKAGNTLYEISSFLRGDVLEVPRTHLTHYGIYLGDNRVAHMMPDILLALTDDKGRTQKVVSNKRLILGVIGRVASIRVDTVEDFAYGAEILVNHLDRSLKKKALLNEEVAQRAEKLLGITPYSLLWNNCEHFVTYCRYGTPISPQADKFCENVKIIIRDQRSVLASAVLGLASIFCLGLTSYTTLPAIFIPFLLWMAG
Procedure: as §1, §2, §3, §4, §5, §6, §7, §8

SMILES: CC(C)(C(=O)c1cccnc1)c1cccnc1 [2-Methyl-1,2-di-3-Pyridyl-1-Propane]
- % Inhibition Retinoic Acid (100 μM) [1]: 47%

SMILES: Oc1cccc2cccnc12 [8 OH QUINOLINE]
- FOLD INCREASE IN RATE OF RETINOL LOSS [2]: 1.5 fold

SMILES: O=c1c2cccc3cccc(c32)c2nc3ccccc3n12 [(7H-Benzimidazo[2,1-a]Benz[de]-Isoquinolin-7-one]
- IC50 (TGase I): 0.859 µM

SMILES: CCCCCCCCCCCCC/C=C/[C@@H](O)[C@H](CO)NC(C)=O [Acetyl Sphingosine]
- % Inhibition ARAT (10 μm) (ARAT): 19% +/− 12
- % Inhibition ARAT (100 μm) (ARAT): 62% +/− 11
- % Inhibition LRAT (10 μm) (LRAT): 10% +/− 10
- % Inhibition LRAT (100 μm) (LRAT): 50% +/− 18
- IC50 (TGase I): 6.78 µM

SMILES: C/C=C\C(=O)C1C(C)=CCCC1(C)C (stereo not drawn) [Alpha-Damascone]
- % Inhibition LRAT (10 μm) (LRAT): 87% +/− 6
- % Inhibition LRAT (100 μm) (LRAT): 98% +/− 1
- IC50 (TGase I): 335 µM

SMILES: CCC(=O)/C=C/C1C(C)=CCCC1(C)C (stereo not drawn) [Alpha-Methyl Ionone]
- % Inhibition ARAT (100 μm) (ARAT): 67%
- % Inhibition LRAT (100 μm) (LRAT): 77%

SMILES: CC(=O)/C=C/C1C(C)=CCCC1(C)C (stereo not drawn) [Alpha=Ionone]
- FOLD INCREASE IN RATE OF RETINOL LOSS [2]: 1.3 fold
- IC50 (TGase I): 927 µM

SMILES: C/C=C/C(=O)C1=C(C)CCCC1(C)C [Beta-Damascone]
- % Inhibition LRAT (10 μm) (LRAT): 52%
- % Inhibition LRAT (100 μm) (LRAT): 92%

SMILES: c1ccc(-c2ccc(C(c3ccccc3)n3ccnc3)cc2)cc1 (stereo not drawn) [Bifonazole]
- % Inhibition Retinoic Acid (10 μM) [1]: 89%
- % Inhibition Retinoic Acid (100 μM) [1]: 100%

SMILES: CC1=CCC(CCC(C)CO)C1(C)C (stereo not drawn) [Brahmanol]
- % Inhibition ARAT (100 μm) (ARAT): 70%
- % Inhibition LRAT (100 μm) (LRAT): 75%

SMILES: O=c1ccc2ccccc2o1 [COUMARIN]
- FOLD INCREASE IN RATE OF RETINOL LOSS [2]: 1.4 fold

SMILES: CC(C)=CCCC(C)=CC=O [Citral]
- FOLD INCREASE IN RATE OF RETINOL LOSS [2]: 3.1 fold
- % Inhibition ARAT (100 μm) (ARAT): 20%

SMILES: CC(C)=CCCC(C)CCO (stereo not drawn) [Citronellol]
- % Inhibition ARAT (100 μm) (ARAT): 30%

SMILES: CC(C)(C)C(=O)C(Oc1ccc(Cl)cc1)n1ccnc1 (stereo not drawn) [Climbazole]
- % Inhibition Retinoic Acid (10 μM) [1]: 80%
- % Inhibition Retinoic Acid (100 μM) [1]: 92%

SMILES: Clc1ccccc1C(c1ccccc1)(c1ccccc1)n1ccnc1 [Clotrimazole]
- % Inhibition Retinoic Acid (10 μM) [1]: 76%

SMILES: CC(/C=C/C=C(\C)C(=O)O)=C\C=C\C=C(C)\C=C\C=C(/C)C(=O)O [Crocetin]
- % Inhibition ARAT (10 μm) (ARAT): 15%
- % Inhibition ARAT (100 μm) (ARAT): 34%

SMILES: C/C=C/C(=O)C1=C(C)C=CCC1(C)C [Damascenone]
- % Inhibition LRAT (10 μm) (LRAT): 29%
- % Inhibition LRAT (100 μm) (LRAT): 79%

SMILES: C/C=C/C(=O)C1C(C)C=CCC1(C)C (stereo not drawn) [Delta-Damascone]
- % Inhibition LRAT (10 μm) (LRAT): 64%
- % Inhibition LRAT (100 μm) (LRAT): 95%

SMILES: CC(=O)CCC1C(C)=CCCC1(C)C (stereo not drawn) [Dihydro Alpha-Ionone]
- % Inhibition ARAT (100 μm) (ARAT): 13%
- % Inhibition LRAT (100 μm) (LRAT): 18%

SMILES: CCCCCCCC(=O)OC[C@H](COP(=O)(O)OCCN)OC(=O)CCCCCCC [Dioctylphosphatidyl Ethanolamine]
- % Inhibition ARAT (10 μm) (ARAT): 23%
- % Inhibition LRAT (10 μm) (LRAT): 0%
- % Inhibition LRAT (100 μm) (LRAT): 17% +/− 17

SMILES: Clc1ccc(COC(Cn2ccnc2)c2ccc(Cl)cc2Cl)cc1 (stereo not drawn) [Econazole]
- % Inhibition Retinoic Acid (10 μM) [1]: 88%
- % Inhibition Retinoic Acid (100 μM) [1]: 100%

SMILES: CCOC(=O)C1=C(C)C=CCC1(C)C [Ethyl Saffranate]
- % Inhibition LRAT (100 μm) (LRAT): 49%

SMILES: CC(C)=CCCC(C)=CCCC(C)=CCO [Farnesol]
- % Inhibition ARAT (10 μm) (ARAT): 23% +/− 18
- % Inhibition ARAT (100 μm) (ARAT): 53% +/− 18

SMILES: CC12CCC(C1)C(C)(C)C2O (stereo not drawn) [Fenchyl Alcohol]
- % Inhibition ARAT (100 μm) (ARAT): 12%

SMILES: CC(=O)/C(C)=C/C1C(C)=CCCC1(C)C (stereo not drawn) [Gamma-Methyl Ionone]
- % Inhibition LRAT (100 μm) (LRAT): 38%

SMILES: CC(C)=CCC/C(C)=C/CO [Geraniol]
- FOLD INCREASE IN RATE OF RETINOL LOSS [2]: 1.3 fold
- % Inhibition ARAT (10 μm) (ARAT): 13%
- % Inhibition ARAT (100 μm) (ARAT): 32%

SMILES: CC(C)=CCC/C(C)=C/CC/C(C)=C/CC/C(C)=C/CO [Geranyl Geraniol]
- % Inhibition ARAT (10 μm) (ARAT): 38% +/− 12
- % Inhibition ARAT (100 μm) (ARAT): 81% +/− 6

SMILES: CCCCCC(N)=O [Hexanoamide]
- % Inhibition ARAT (100 μm) (ARAT): 20%

SMILES: CCCCCCCCCCCCC/C=C/[C@@H](O)[C@H](CO)NC(=O)CCCCC [Hexanoyl Sphingosine]
- % Inhibition LRAT (100 μm) (LRAT): 37% +/− 9
- IC50 (TGase I): 99.9 µM

SMILES: CCCCCCCCCCC(O)C(=O)NCCO (stereo not drawn) [Hydroxyethyl-2-Hydroxy-C12 Amide]
- % Inhibition LRAT (100 μm) (LRAT): 35%
- IC50 (TGase I): 32.9 µM

SMILES: CC1=CC(C)C(CO)C(C)C1 (stereo not drawn) [Isocyclogeraniol]
- % Inhibition ARAT (100 μm) (ARAT): 18%
- % Inhibition LRAT (100 μm) (LRAT): 16%

SMILES: CC=CC(=O)C1CCC(C)(C)C=C1C (stereo not drawn) [Isodamascone]
- % Inhibition ARAT (100 μm) (ARAT): 80%
- % Inhibition LRAT (100 μm) (LRAT): 92%

Source: patent US20020143059A1, “Skin care product containing retinoids, retinoid booster and phytoestrogens in a dual compartment package” (priority 2000, published 2002)
